Data published in patent US20180256592A1, “ANTIBACTERIAL COMPOSITIONS” (priority 2015, published 2018).

What was measured:
Assay type in all cases: cell-based
[1] = test system: Klebsiella J 102 (TEM, SHV, OMP); test: MIC by agar dilution (MHA, CLSI)
Protocol: (§1) The antibacterial activity of combinations according to the invention was investigated against various bacterial strains. In a typical study, minimum inhibitory concentrations (MICs) were determined using Muller Hinton Agar (MHA) (BD, USA) according to Clinical and Laboratory Standards Institute (CLSI) recommendations, (Clinical and Laboratory Standards Institute (CLSI), Performance Standards for Antimicrobial Susceptibility Testing, 20th Informational Supplement, M 100-S20, Volume 30, No. 1, 2010). In short, the inocula were adjusted to deliver about […] colony forming units (CFU) per spot with a multipoint inoculator (Applied Quality Services, UK). The plates were pored with doubling concentration range of the test combinations according to invention containing MHA. The plates were inoculated and were incubated at 35° C. for 18 hours.

[2] = test system: Klebsiella J 117 (SHV, OMP); test: MIC by agar dilution (MHA, CLSI)
Protocol: as §1

[3] = test system: Klebsiella H 521 (KPC, class A); test: MIC by agar dilution (MHA, CLSI)
Protocol: as §1

[4] = test system: Klebsiella J 101 (TEM, SHV, OMP); test: MIC by agar dilution (MHA, CLSI)
Protocol: as §1

[5] = test system: KP S 691 (OXA 181, SHV, TEM, CTX-M 1); test: MIC by agar dilution (MHA, CLSI)
Protocol: as §1

[6] = test system: Klebsiella H 520 (KPC, class A); test: MIC by agar dilution (MHA, CLSI)
Protocol: as §1

NCTC KP 13442 (OXA-48) = test: MIC by agar dilution (MHA, CLSI)
Protocol: as §1

[7] = test system: Klebsiella H 523 (KPC, class A); test: MIC by agar dilution (MHA, CLSI)
Protocol: as §1

[8] = test system: Klebsiella J 130 (SHV, OMP); test: MIC by agar dilution (MHA, CLSI)
Protocol: as §1

[9] = test system: Klebsiella H 515 (KPC, class A); test: MIC by agar dilution (MHA, CLSI)
Protocol: as §1

[10] = test system: KP S 440 (OXA 181, SHV, TEM, CTX-M 1); test: MIC by agar dilution (MHA, CLSI)
Protocol: as §1

[11] = test system: highly resistant gram negative bacterial strains; test: MIC by agar dilution (MHA, CLSI), whole strain panel of Table 1; details: strains of Table 1; clavulanic acid 4 μg/ml
Protocol: as §1

[12] = KP S 691 (OXA 181, SHV, TEM, CTX-M 1), + clavulanic acid 4 μg/ml

Compound: C=CC1=C(C(=O)O)N2C(=O)[C@@H](NC(=O)/C(=N\O)c3csc(N)n3)[C@H]2SC1 [Cefdinir, cefdinir]
- MIC in presence of Clavulanic acid (4 μg/ml) ([1]; + clavulanic acid 4 μg/ml): >32 µg/mL
- MIC ([1]; drug alone): > 32 µg/mL
- MIC in presence of Clavulanic acid (4 μg/ml) ([2]; + clavulanic acid 4 μg/ml): 0.5 µg/mL
- MIC ([2]; drug alone): > 32 µg/mL
- MIC in presence of Clavulanic acid (4 μg/ml) ([3]; + clavulanic acid 4 μg/ml): >32 µg/mL
- MIC ([3]; drug alone): > 32 µg/mL
- MIC in presence of Clavulanic acid (4 μg/ml) ([4]; + clavulanic acid 4 μg/ml): >32 µg/mL
- MIC ([4]; drug alone): > 32 µg/mL
- MIC [5]: > 32 µg/mL
- MIC in presence of Clavulanic acid (4 μg/ml) [5, 12]: >32 µg/mL
- MIC in presence of Clavulanic acid (4 μg/ml) ([6]; + clavulanic acid 4 μg/ml): >32 µg/mL
- MIC ([6]; drug alone): > 32 µg/mL
- MIC in presence of Clavulanic acid (4 μg/ml) (NCTC KP 13442 (OXA-48); + clavulanic acid 4 μg/ml): 32 µg/mL
- MIC (NCTC KP 13442 (OXA-48); drug alone): 32 µg/mL
- MIC in presence of Clavulanic acid (4 μg/ml) ([7]; + clavulanic acid 4 μg/ml): >32 µg/mL
- MIC ([7]; drug alone): > 32 µg/mL
- MIC in presence of Clavulanic acid (4 μg/ml) ([8]; + clavulanic acid 4 μg/ml): 16 µg/mL
- MIC ([8]; drug alone): > 32 µg/mL
- MIC in presence of Clavulanic acid (4 μg/ml) ([9]; + clavulanic acid 4 μg/ml): >32 µg/mL
- MIC ([9]; drug alone): > 32 µg/mL
- MIC in presence of Clavulanic acid (4 μg/ml) ([10]; + clavulanic acid 4 μg/ml): >32 µg/mL
- MIC ([10]; drug alone): > 32 µg/mL

Compound: C=CC1=C(C(=O)O)N2C(=O)[C@@H](NC(=O)/C(=N\OCC(=O)O)c3csc(N)n3)[C@H]2SC1 [Cefixime, cefixime]
- MIC in presence of Clavulanic acid (4 μg/ml) ([1]; + clavulanic acid 4 μg/ml): >32 µg/mL
- MIC ([1]; drug alone): > 32 µg/mL
- MIC in presence of Clavulanic acid (4 μg/ml) ([2]; + clavulanic acid 4 μg/ml): 0.5 µg/mL
- MIC ([2]; drug alone): > 32 µg/mL
- MIC in presence of Clavulanic acid (4 μg/ml) ([3]; + clavulanic acid 4 μg/ml): 16 µg/mL
- MIC ([3]; drug alone): > 32 µg/mL
- MIC in presence of Clavulanic acid (4 μg/ml) ([4]; + clavulanic acid 4 μg/ml): >32 µg/mL
- MIC ([4]; drug alone): > 32 µg/mL
- MIC [5]: > 32 µg/mL
- MIC in presence of Clavulanic acid (4 μg/ml) [5, 12]: 16 µg/mL
- MIC in presence of Clavulanic acid (4 μg/ml) ([6]; + clavulanic acid 4 μg/ml): 16 µg/mL
- MIC ([6]; drug alone): > 32 µg/mL
- MIC in presence of Clavulanic acid (4 μg/ml) (NCTC KP 13442 (OXA-48); + clavulanic acid 4 μg/ml): 0.25 µg/mL
- MIC (NCTC KP 13442 (OXA-48); drug alone): 0.25 µg/mL
- MIC in presence of Clavulanic acid (4 μg/ml) ([7]; + clavulanic acid 4 μg/ml): 16 µg/mL
- MIC ([7]; drug alone): > 32 µg/mL
- MIC in presence of Clavulanic acid (4 μg/ml) ([8]; + clavulanic acid 4 μg/ml): 16 µg/mL
- MIC ([8]; drug alone): > 32 µg/mL
- MIC in presence of Clavulanic acid (4 μg/ml) ([9]; + clavulanic acid 4 μg/ml): 16 µg/mL
- MIC ([9]; drug alone): > 32 µg/mL
- MIC in presence of Clavulanic acid (4 μg/ml) ([10]; + clavulanic acid 4 μg/ml): 16 µg/mL
- MIC ([10]; drug alone): > 32 µg/mL

Compound: COCC1=C(C(=O)O)N2C(=O)[C@@H](NC(=O)/C(=N\OC)c3csc(N)n3)[C@H]2SC1 [Cefpodoxime, cefpodoxime]
- MIC of Cefpodoxime in presence of Clavulanic acid (4 μg/ml) ([1]; + clavulanic acid 4 μg/ml): >32 μ/ml
- MIC of Cefpodoxime, Control (Cefpodoxime alone) ([1]; drug alone): >32 μ/ml
- MIC of Cefpodoxime in presence of Clavulanic acid (4 μg/ml) ([2]; + clavulanic acid 4 μg/ml): 4 μ/ml
- MIC of Cefpodoxime, Control (Cefpodoxime alone) ([2]; drug alone): >32 μ/ml
- MIC of Cefpodoxime in presence of Clavulanic acid (4 μg/ml) ([3]; + clavulanic acid 4 μg/ml): >32 μ/ml
- MIC of Cefpodoxime, Control (Cefpodoxime alone) ([3]; drug alone): >32 μ/ml
- MIC of Cefpodoxime in presence of Clavulanic acid (4 μg/ml) ([4]; + clavulanic acid 4 μg/ml): >32 μ/ml
- MIC of Cefpodoxime, Control (Cefpodoxime alone) ([4]; drug alone): >32 μ/ml
- MIC of Cefpodoxime in presence of Clavulanic acid (4 μg/ml) [5, 12]: >32 μ/ml
- MIC of Cefpodoxime, Control (Cefpodoxime alone) ([5]; KP S 691 (OXA 181, SHV, TEM, CTX-M 1), drug alone): >32 μ/ml
- MIC of Cefpodoxime in presence of Clavulanic acid (4 μg/ml) ([6]; + clavulanic acid 4 μg/ml): >32 μ/ml
- MIC of Cefpodoxime, Control (Cefpodoxime alone) ([6]; drug alone): >32 μ/ml
- MIC of Cefpodoxime in presence of Clavulanic acid (4 μg/ml) (NCTC KP 13442 (OXA-48); + clavulanic acid 4 μg/ml): 1 μ/ml
- MIC of Cefpodoxime, Control (Cefpodoxime alone) (NCTC KP 13442 (OXA-48); drug alone): 4 μ/ml
- MIC of Cefpodoxime in presence of Clavulanic acid (4 μg/ml) ([7]; + clavulanic acid 4 μg/ml): >32 μ/ml
- MIC of Cefpodoxime, Control (Cefpodoxime alone) ([7]; drug alone): >32 μ/ml
- MIC of Cefpodoxime in presence of Clavulanic acid (4 μg/ml) ([8]; + clavulanic acid 4 μg/ml): 32 μ/ml
- MIC of Cefpodoxime, Control (Cefpodoxime alone) ([8]; drug alone): >32 μ/ml
- MIC of Cefpodoxime in presence of Clavulanic acid (4 μg/ml) ([9]; + clavulanic acid 4 μg/ml): >32 μ/ml
- MIC of Cefpodoxime, Control (Cefpodoxime alone) ([9]; drug alone): >32 μ/ml
- MIC of Cefpodoxime in presence of Clavulanic acid (4 μg/ml) ([10]; + clavulanic acid 4 μg/ml): >32 μ/ml
- MIC of Cefpodoxime, Control (Cefpodoxime alone) ([10]; drug alone): >32 μ/ml

Compound: Nc1nc(/C(=C/CC(=O)O)C(=O)N[C@@H]2C(=O)N3C(C(=O)O)=CCS[C@H]23)cs1 [Ceftibuten, ceftibuten]
- change of MIC values of ceftibuten in the presence of clavulanic acid [11]: significantly reduced
- MIC in presence of Clavulanic acid (4 μg/ml) ([1]; + clavulanic acid 4 μg/ml): 8 µg/mL
- MIC in presence of Sulbactam (4 μg/ml) ([1]; + sulbactam 4 μg/ml): 32 µg/mL
- MIC in presence of Tazobactam (4 μg/ml) ([1]; + tazobactam 4 μg/ml): 32 µg/mL
- MIC ([1]; drug alone): 32 µg/mL
- MIC in presence of Clavulanic acid (4 μg/ml) ([2]; + clavulanic acid 4 μg/ml): 0.12 µg/mL
- MIC in presence of Sulbactam (4 μg/ml) ([2]; + sulbactam 4 μg/ml): 32 µg/mL
- MIC in presence of Tazobactam (4 μg/ml) ([2]; + tazobactam 4 μg/ml): 32 µg/mL
- MIC ([2]; drug alone): 32 µg/mL
- MIC in presence of Clavulanic acid (4 μg/ml) ([3]; + clavulanic acid 4 μg/ml): 4 µg/mL
- MIC in presence of Sulbactam (4 μg/ml) ([3]; + sulbactam 4 μg/ml): 16 µg/mL
- MIC in presence of Tazobactam (4 μg/ml) ([3]; + tazobactam 4 μg/ml): 16 µg/mL
- MIC ([3]; drug alone): 32 µg/mL
- MIC in presence of Clavulanic acid (4 μg/ml) ([4]; + clavulanic acid 4 μg/ml): 8 µg/mL
- MIC in presence of Sulbactam (4 μg/ml) ([4]; + sulbactam 4 μg/ml): 32 µg/mL
- MIC in presence of Tazobactam (4 μg/ml) ([4]; + tazobactam 4 μg/ml): 32 µg/mL
- MIC ([4]; drug alone): > 32 µg/mL
- MIC [5]: 8 µg/mL
- MIC in presence of Clavulanic acid (4 μg/ml) [5, 12]: 1 µg/mL
- MIC in presence of Sulbactam (4 μg/ml) ([5]; KP S 691 (OXA 181, SHV, TEM, CTX-M 1), + sulbactam 4 μg/ml): 2 µg/mL
- MIC in presence of Tazobactam (4 μg/ml) ([5]; KP S 691 (OXA 181, SHV, TEM, CTX-M 1), + tazobactam 4 μg/ml): 2 µg/mL
- MIC in presence of Clavulanic acid (4 μg/ml) ([6]; + clavulanic acid 4 μg/ml): 4 µg/mL
- MIC in presence of Sulbactam (4 μg/ml) ([6]; + sulbactam 4 μg/ml): 8 µg/mL
- MIC in presence of Tazobactam (4 μg/ml) ([6]; + tazobactam 4 μg/ml): 16 µg/mL
- MIC ([6]; drug alone): 32 µg/mL
- MIC in presence of Clavulanic acid (4 μg/ml) (NCTC KP 13442 (OXA-48); + clavulanic acid 4 μg/ml): 0.12 µg/mL
- MIC in presence of Sulbactam (4 μg/ml) (NCTC KP 13442 (OXA-48); + sulbactam 4 μg/ml): 0.25 µg/mL
- MIC in presence of Tazobactam (4 μg/ml) (NCTC KP 13442 (OXA-48); + tazobactam 4 μg/ml): 0.25 µg/mL
- MIC (NCTC KP 13442 (OXA-48); drug alone): 0.25 µg/mL
- MIC in presence of Clavulanic acid (4 μg/ml) ([7]; + clavulanic acid 4 μg/ml): 4 µg/mL
- MIC in presence of Sulbactam (4 μg/ml) ([7]; + sulbactam 4 μg/ml): 4 µg/mL
- MIC in presence of Tazobactam (4 μg/ml) ([7]; + tazobactam 4 μg/ml): 8 µg/mL
- MIC ([7]; drug alone): 16 µg/mL
- MIC in presence of Clavulanic acid (4 μg/ml) ([8]; + clavulanic acid 4 μg/ml): 4 µg/mL
- MIC in presence of Sulbactam (4 μg/ml) ([8]; + sulbactam 4 μg/ml): >32 µg/mL
- MIC in presence of Tazobactam (4 μg/ml) ([8]; + tazobactam 4 μg/ml): >32 µg/mL
- MIC ([8]; drug alone): > 32 µg/mL
- MIC in presence of Clavulanic acid (4 μg/ml) ([9]; + clavulanic acid 4 μg/ml): 4 µg/mL
- MIC in presence of Sulbactam (4 μg/ml) ([9]; + sulbactam 4 μg/ml): 8 µg/mL
- MIC in presence of Tazobactam (4 μg/ml) ([9]; + tazobactam 4 μg/ml): 8 µg/mL
- MIC ([9]; drug alone): 16 µg/mL
- MIC in presence of Clavulanic acid (4 μg/ml) ([10]; + clavulanic acid 4 μg/ml): 2 µg/mL
- MIC in presence of Sulbactam (4 μg/ml) ([10]; + sulbactam 4 μg/ml): 4 µg/mL
- MIC in presence of Tazobactam (4 μg/ml) ([10]; + tazobactam 4 μg/ml): 4 µg/mL
- MIC ([10]; drug alone): 16 µg/mL
